PMC9953269, “In Vivo Acute Toxicity Studies of Novel Anti-Melanoma Compounds Downregulators of hnRNPH1/H2” (Biomolecules, 2023)

Assays:
Balb/c mice [1] = assay: Body weight during 21-day acute toxicity study; type: in vivo; details: 50 mg/kg BW sc 3×/week for 3 weeks, n=6
Experimental: (§1) This study used 5- to 7-week-old male and female Balb/c (Jackson Laboratories) mice. The mice were housed in standard mouse shoe-box cages and maintained in a 12-hr light/12-hr dark cycle, with 50% humidity and 20 ± 3 °C. The mice had free access to a standard pellet diet (Certified PicoLab® Rodent Diet 20, Lab Diet) and water ad libitum. The study was conducted in accordance with the guidelines of the Nova Southeastern University (NSU) Institutional Animal Care and Use Committee (NSU IACUC protocol 2019.12.DM4).
The animals were divided into four groups with each group containing six mice (three male and three female). Group 1: non-treated control mice; Group 2: animals were treated with a vehicle control (10%/90% DMSO/sterile water, USP sterile injectable grade) for 21 days; Group 3: animals were treated with 2155-14 (50 mg/kg body weight) for 21 days; and Group 4: animals were treated with 2155-18 (50 mg/kg body weight) for 21 days three times/week. Compounds (2155-14 and 2155-18) were freshly prepared in 10% DMSO/H2O (both USP injectable grade) for each treatment day. […]
(§2) Statistical significance was set at p < 0.05. All data were analyzed using one-way ANOVA to compare means, and significant differences were further analyzed by Tukey’s multiple comparisons using Prism (version 8.0, GraphPad Inc., San Diego, CA, USA).

Balb/c mice [2] = assay: Blood chemistry after 21-day acute toxicity study; type: in vivo; details: 50 mg/kg bw sc 3×/week for 21 days, mean ± SD; for Creatinine: n=6, reference range 0.2–0.4; for Total protein: n=6, reference range 4.6–8.9; for BUN: n=6, reference range 7.0–26; for Phosphorus: n=6, reference range 8.2–14.7; for Calcium: n=6, reference range 9.4–12.5; for Glucose: n=6, reference range 129–329
Experimental: as §1
(§3) The animals were divided into four groups with each group containing six mice (three male and three female). Group 1: non-treated control mice; Group 2: animals were treated with a vehicle control (10%/90% DMSO/sterile water, USP sterile injectable grade) for 21 days; Group 3: animals were treated with 2155-14 (50 mg/kg body weight) for 21 days; and Group 4: animals were treated with 2155-18 (50 mg/kg body weight) for 21 days three times/week. Compounds (2155-14 and 2155-18) were freshly prepared in 10% DMSO/H2O (both USP injectable grade) for each treatment day. Both 2155-14 and 2155-18 were weighed into autoclaved 1.5 mL Eppendorf vials using analytical scales. USP grade DMSO was added to each vial under aseptic conditions and vortexed. USP grade injectable sterile H2O was then added to each vial and again vortexed. Next, 1 mL insulin syringes with a 26-gauge needle were filled with 0.2 mL of the compound and delivered to the vivarium in the closed carrier for animal treatment. For the vehicle control group, syringes were filled with 0.2 mL of 10% DMSO/H2O (USP injectable grade).
(§4) All mice were euthanized after 21 days by CO2 overdose. Whole blood samples were collected via cardiocentesis with a 25-gauge needle immediately after euthanasia. Blood samples were collected in MiniCollect® Serum and Plasma Tubes containing either K3EDTA or lithium heparin for CBC and blood chemistry, respectively. Blood smears were prepared from whole blood and analyzed for the morphological changes of blood cells under the microscope.
(§5) The heart, lungs, stomach, intestines, pancreas, spleen, kidney with adrenal, liver, and brain were collected and placed in 10% neutral buffered formalin for histopathology. The tissues were processed via standard tissue processing to produce H&E slides. All H&E slides were reviewed blind to the treatment group. Tissues were evaluated for the presence of inflammation, degeneration, signs of toxicity, and any other abnormalities. CBC, blood chemistry, and histopathology analyses were performed at the Division of Comparative Pathology, University of Miami.
as §2

Balb/c mice [3] = assay: Histopathology of organs (H&E) after 21-day acute toxicity study; type: in vivo; details: 50 mg/kg sc, 21 days
Experimental: as §3
(§6) The heart, lungs, stomach, intestines, pancreas, spleen, kidney with adrenal, liver, and brain were collected and placed in 10% neutral buffered formalin for histopathology. […] Tissues were evaluated for the presence of inflammation, degeneration, signs of toxicity, and any other abnormalities. […]

Balb/c mice [4] = assay: Complete blood count (CBC) after 21-day acute toxicity study; type: in vivo; details: 50 mg/kg bw sc 3×/week for 21 days; for Eosinohils / Monocytes / WBC / RBC / Segmented Neutrophils / Hgb / MCH / MCHC / HCT / Lymphocytes / MCV / Platelets: mean ± SD; for Eosinohils: n=6, reference range 0.11–4.91; for Monocytes: n=6, reference range 3.29–12.48; for WBC: n=6, reference range 3.48–14.03; for RBC: n=6, reference range 6.93–12.24; for Segmented Neutrophils: n=6, reference range 9.86–39.11; for Hgb: n=6, reference range 12.6–20.5; for MCH: n=6, reference range 13.2–17.6; for MCHC: n=6, reference range 23.3–32.7; for HCT: n=6, reference range 42.1–68.3; for Lymphocytes: n=6, reference range 48.81–83.19; for MCV: n=6, reference range 50.7–64.4; for Platelets: n=6, reference range 420–1698; for Banded Neutrophils: n=6, reference range 0–1; for Basophils: n=6, reference range 0–1.84
Experimental: as §1, §3, §4, §5, §2

[5] = test system: various cell types (liver, lung, breast, brain, skin, ovary, primary melanocytes, primary keratinocytes); details: in vitro, tested up to 100 µM; cited from earlier work
primary melanocytes = details: in vitro; cited from earlier work
melanoma cells = details: in vitro; read-out: IC50, inhibition of viability of melanoma cells; cited from earlier work
Balb/c mice [6] = assay: Overall acute toxicity after sc administration; type: in vivo; details: 50 mg/kg sc, 21 days
Experimental: as §1
The animals were divided into four groups with each group containing six mice (three male and three female). […]
All mice were euthanized after 21 days by CO2 overdose. […] Blood smears were prepared from whole blood and analyzed for the morphological changes of blood cells under the microscope.
as §6

O=C1NC[C@H](Cc2ccccc2)N(C[C@@H]2CCCN2C[C@@H](CC2CCCCC2)N2C[C@H](Cc3ccc(O)cc3)N(CCc3ccccc3)C(=O)C2=O)C1=O [Compound 2155-14]
Change in body weight versus control groups (Balb/c mice [1]): No significant changes in body weight
Creatinine (Balb/c mice [2]): * 0.44 ± 0.19 mg/dL
Total protein (Balb/c mice [2]): 7.1 ± 0.6 g/dL
BUN (Balb/c mice [2]): 18.3 ± 2.5 mg/dL
Phosphorus (Balb/c mice [2]): 13.6 ± 0.4 mg/dL
Calcium (Balb/c mice [2]): 9.1 ± 0.85 mg/dL
Glucose (Balb/c mice [2]): 181 ± 25.7 mg/dL
Histopathological examination of hearts and livers (Balb/c mice [3]): no adverse effects
Eosinohils (Balb/c mice [4]): 0.5 ± 1.2%
Monocytes (Balb/c mice [4]): 4.25 ± 4.27%
WBC (Balb/c mice [4]): 5.1 ± 1.6 K/µL
RBC (Balb/c mice [4]): 10.6 ± 2.1 M/µL
Segmented Neutrophils (Balb/c mice [4]): 18.8 ± 8.0%
Hgb (Balb/c mice [4]): 14.1 ± 1.6 g/dL
MCH (Balb/c mice [4]): 14 ± 2.3 pg
MCHC (Balb/c mice [4]): 23 ± 5.1 g/dL
HCT (Balb/c mice [4]): 61.1%
Lymphocytes (Balb/c mice [4]): 78.3 ± 7.5%
MCV (Balb/c mice [4]): 61 ± 2.2 fL
Platelets (Balb/c mice [4]): 542 ± 95 K/µL
Banded Neutrophils (Balb/c mice [4]): 0%
Basophils (Balb/c mice [4]): 0%
TC50, toxicity against various cell types [5]: > 100 µM
Effect on viability of primary melanocytes (primary melanocytes): do not have an effect on the viability of primary melanocytes
IC50 (melanoma cells): 0.5 to 10 µM
Acute toxicity after sc administration (Balb/c mice [6]): lack of acute toxicity

O=C1NC[C@H](Cc2ccccc2)N(C[C@@H]2CCCN2C[C@H](Cc2ccccc2)N2C[C@H](Cc3ccc(O)cc3)N(CCC34CC5CC(CC(C5)C3)C4)C(=O)C2=O)C1=O [Compound 2155-18]
Change in body weight versus control groups (Balb/c mice [1]): No significant changes in body weight
Creatinine (Balb/c mice [2]): * 0.46 ± 0.11 mg/dL
Total protein (Balb/c mice [2]): 6.7 ± 0.48 g/dL
BUN (Balb/c mice [2]): 16.7 ± 1.6 mg/dL
Phosphorus (Balb/c mice [2]): * 15.3 ± 0.25 mg/dL
Calcium (Balb/c mice [2]): 8.7 ± 0.75 mg/dL
Glucose (Balb/c mice [2]): 212 ± 50.5 mg/dL
Histopathological examination of hearts and livers (Balb/c mice [3]): no adverse effects
Eosinohils (Balb/c mice [4]): 2 ± 1%
Monocytes (Balb/c mice [4]): 6.7 ± 2.3%
WBC (Balb/c mice [4]): 4.2 ± 2.7 K/µL
RBC (Balb/c mice [4]): 7.9 ± 1.4 M/µL
Segmented Neutrophils (Balb/c mice [4]): 24.7 ± 10.9%
Hgb (Balb/c mice [4]): * 11.9 ± 1.6 g/dL
MCH (Balb/c mice [4]): 14.7 ± 0.57 pg
MCHC (Balb/c mice [4]): 25.3 ± 0.58 g/dL
HCT (Balb/c mice [4]): 46.9 ± 6.4%
Lymphocytes (Balb/c mice [4]): 70.7 ± 11.3%
MCV (Balb/c mice [4]): 59.3 ± 2.1 fL
Platelets (Balb/c mice [4]): 741 ± 305 K/µL
Banded Neutrophils (Balb/c mice [4]): 0%
Basophils (Balb/c mice [4]): 0%
TC50, toxicity against various cell types [5]: > 100 µM
Effect on viability of primary melanocytes (primary melanocytes): do not have an effect on the viability of primary melanocytes
IC50 (melanoma cells): 0.5 to 10 µM
Acute toxicity after sc administration (Balb/c mice [6]): lack of acute toxicity
